Source: publication PMC2667487, “Cellular localization of kinin B1 receptor in the spinal cord of streptozotocin-diabetic rats with a fluorescent [N^α-Bodipy]-des-Arg^9-bradykinin” (Journal of Neuroinflammation, 2009)
“And” between values parts separate entries of the source, which are not always exact repeats. Equal entries are not always repeated. “Also recorded” adds a separate entry of the source. Values belong to the compound of their own block, whether it stands above or below them.

Legend:
[1] = test system: B1R mRNA in thoracic spinal cord; assay: B1R mRNA expression, SYBR green-based quantitative RT-PCR; parameters: species or system rat; settings: STZ 65 mg/kg i.p., 4 days, 18S reference, means of 3 to 6 rats
Procedure: (§1) Rats were used 5 days after their arrival and injected under low light with freshly prepared STZ (65 mg/kg; i.p.; Sigma-Aldrich, Oakville, ON, Canada). Age-matched controls were injected with vehicle (sterile saline 0.9%, pH. 7.0). Glucose concentrations were measured, with a commercial blood glucose-monitoring kit (Accusoft; Roche Diagnostics, Laval, Que., Canada), in blood samples obtained from the tail vein, in non-fasting animals, before STZ injection, and 4 days after treatment. Only STZ-treated rats whose blood glucose concentration was higher than 20 mM were considered as diabetic.
Four days after injection of STZ, rats were anaesthetized with CO2 inhalation and then decapitated. […] First-strand cDNA synthesized from 400 ng total RNA with random hexamer primers was used as template for each reaction with the QuantiTect Rev Transcription Kit (QIAGEN). SYBR Green-based real-time quantitative PCR using Mx3000p device for signal detection (Stratagene, La Jolla, CA, USA) was performed as described. […] For standardization and quantification, rat 18S was amplified simultaneously. […]
PCR conditions were as follows: 95°C for 15 min, followed by 46 cycles at 94°C for 15 s, 60°C for 30 s and 72°C for 30 s. […] The relative quantification of gene expression was analyzed by the 2^-ΔΔCt method.

[2] = test system: B1R binding sites in thoracic spinal cord; assay: density of specific B1R binding sites, quantitative autoradiography; parameters: species or system rat; settings: STZ 65 mg/kg i.p., 4 days, 7 to 8 rats
Procedure: as §1
The radioligands for kinin B1R, HPP-desArg^10-Hoe140 (3-(4 hydroxyphenyl) propionyl-desArg^9-D-Arg^0 [Hyp^3, Thi^5, D-Tic^7, Oic^8]Bradykinin) and kinin B2R, HPP-Hoe140 (3-(4 hydroxyphenyl) propionyl-D-Arg^0 [Hyp^3, Thi^5, D-Tic^7, Oic^8]Bradykinin) were synthesized and kindly provided by Dr Witold Neugebauer (Dept Pharmacology, University of Sherbrooke, Sherbrooke, Que., Canada). They were iodinated by the chloramine T method. […] Autoradiograms were quantified by densitometry using an MCID™ image analysis system (Imaging Research, St. Catharines, ON, Canada). […] Specific binding was determined by subtracting values of nonspecific binding from that of total binding.

kinin B2R = target: T1, kinin B2R (Rattus norvegicus, UniProt P25023); assay: competition curves by quantitative autoradiography, displacement of [^125I]-HPP-Hoe 140 (B2R); settings: 200 pM [^125I]-HPP-Hoe 140, competitor 10^-10 to 10^-6 M, thoracic spinal cord sections of STZ-treated rats, 90 min, room temperature, 25 mM PIPES-NH4OH pH 7.4; means ± SEM, 4 sections per rat from 7 rats; read-out: IC50, displacement of B2R binding sites
T1 construct: from tissue; host or cells: rat tissue sections (spinal cord, autoradiography)
T1 sequence (P25023 1-396): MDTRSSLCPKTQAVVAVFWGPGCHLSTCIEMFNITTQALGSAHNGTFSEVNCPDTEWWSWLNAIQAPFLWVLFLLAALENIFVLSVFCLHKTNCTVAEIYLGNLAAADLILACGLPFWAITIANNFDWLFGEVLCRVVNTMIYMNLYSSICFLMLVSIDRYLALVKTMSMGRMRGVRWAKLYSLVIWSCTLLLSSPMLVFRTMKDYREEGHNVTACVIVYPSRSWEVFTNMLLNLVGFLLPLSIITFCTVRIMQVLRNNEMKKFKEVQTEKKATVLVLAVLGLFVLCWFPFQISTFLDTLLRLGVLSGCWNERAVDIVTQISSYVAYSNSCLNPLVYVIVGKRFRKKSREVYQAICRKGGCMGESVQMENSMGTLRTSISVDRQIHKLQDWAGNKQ
Procedure: They were iodinated by the chloramine T method. […] At the end of the incubation period, slides were transferred sequentially through four rinses of 4 min each in 25 mM PIPES (pH 7.4; 4°C) dipped for 15s in distilled water (4°C) to remove the excess of salts, and then air-dried. Kodak Scientific Imaging Films BIOMAXTM MR® (Amersham Pharmacia Biotech Canada) were juxtaposed onto the slides in the presence of [^125I]-microscales and exposed at room temperature for 7 days. The films were developed (GBX developer) and fixed (GBX fixer). Autoradiograms were quantified by densitometry using an MCIDTM image analysis system (Imaging Research, St. Catharines, ON, Canada). A standard curve from [^125I]-microscales was used to convert density levels into fentomoles per milligram of protein [48]. Specific binding was determined by subtracting values of nonspecific binding from that of total binding. […] Each concentration of each competitor was tested on 4 sections per rat from 7 different rats. Those sections were exposed to the film, and total binding was calculated as described above. […] All data were expressed as means ± S.E.M. obtained from n rats. Statistical significance was determined with Student's t-test for unpaired samples or a one-way analysis of variance (ANOVA) followed by post-hoc Dunnett test for multiple comparisons.

[3] = test system: B1R in thoracic spinal cord; assay: BdABK fluorescent labeling of B1R and its displacement, confocal microscopy; format: binding, rat; settings: STZ-treated thoracic spinal cord, BdABK 50 μM co-incubated with 10^-5 M antagonist
Procedure: On the day of experiments, sections were thawed at room temperature for 10 min to enhance sections adhesion. They were pre-incubated for 10 min in 25 mM PIPES-NH4OH buffer (pH 7.4) to allow degradation of endogenous kinins which could occupy receptors. Sections were exposed for 90 min to 50 μM BdABK. Thereafter, slides were washed twice (1 min) in PIPES and fixed with 4% para-formaldehyde. Slides were washed three times (5 min) and then exposed to 1 M of glycine for 90 min to eliminate autofluorescence from aldehyde-fixed tissue. […] Each concentration of each competitor was tested on 4 sections per rat from 7 different rats. Those sections were exposed to the film, and total binding was calculated as described above.

[4] = test system: rat model of insulin-resistance; settings: cited from earlier work
Excerpt: Importantly, the development of tactile and cold allodynia in a rat model of insulin-resistance was blocked by the B1R antagonist SSR240612 [28] and by two antioxidants (N-acetyl-L-cysteine and alpha-lipoic acid) ...

B2 receptors = settings: via B2 receptors, protein kinase C; cited from earlier work
Excerpt: (§2) NF-κB upregulates B1R upon binding to its nuclear promoter.

[5] = test system: B1R in primary microglial cells; settings: cited from earlier work
Excerpt: as §2

[6] = test system: B1R in primary microglial cells; assay: B1R induction and BdABK labeling in primary cultured microglial cells; format: cell-based, rat; settings: 300 nM BK, 24 h
Procedure: Mixed glial cultures were prepared following the protocol of McCarthy and de Vellis with some modifications. Briefly, forebrains were dissected out from one litter of 2-day-old Sprague-Dawley rat pups and the meninges were stripped off before enzymatic and mechanical dissociation. For enzymatic dissociation, HBSS containing 0.25% trypsin (Gibco 15090-046) was used. The tissue-trypsin suspension was incubated for 20 min at 37°C in a water bath with intermittent shaking. After the waiting time for the trypsin digestion is over we added to the tissue-trypsin suspension a mixture of prewarmed DMEM/Dnase I (Sigma DN-25, Dnase I final concentration 0. 25 mg/ml) followed by an incubation for 4 min at 37°C. The resulting suspension was dispersed by a mild mechanical trituration which consisted in the passage through 18-, 22- and 25- gauge needles. This cell suspension was then filtred through 70 μm strainer (BD Falcon 352350). After extensive washs in prewarmed HBSS, these dissociated cells were resuspended and plated in 75-cm^2 Falcon tissue-culture flasks (BD Biosciences) previously coated with 10 μg/ml poly-D-lysine (PDL). These mixed cells were growing at 37°C and 5% CO2 in DMEM (Gibco) supplemented with 10% FBS, penicillin (100 units/ml), and streptomycin ([…]). The media was changed every 2 or 3 days thereafter. […]

Compound: CN(N=O)C(=O)N[C@H]1C(O)O[C@H](CO)[C@@H](O)[C@@H]1O (mixture of isomers) [STZ, streptozotocin]
B1R mRNA expression increase (fold change vs control) [1]: 18 fold and 18.1 fold
B1R binding sites, fold vs control [2]: 2.7 fold

IC50 (kinin B2R): 1.33 ± 0.1 nM
Compound: NC(N)=NCCC[C@@H](N)C(=O)N[C@@H](CCCN=C(N)N)C(=O)N1CCC[C@H]1C(=O)N1C[C@H](O)C[C@H]1C(=O)NCC(=O)N[C@@H](Cc1cccs1)C(=O)N[C@@H](CO)C(=O)N1Cc2ccccc2C[C@@H]1C(=O)N1[C@H](C(=O)N[C@@H](CCCN=C(N)N)C(=O)O)C[C@@H]2CCCC[C@@H]21 [Hoe 140]

Compound: CCN(C(=O)[C@@H](Cc1ccc(CN2[C@H](C)CCC[C@@H]2C)cc1)NC(=O)C[C@@H](NS(=O)(=O)c1ccc2cc(OC)ccc2c1)c1ccc2c(c1)OCO2)C(C)C.Cl [SSR240612]
displacement of BdABK labeling by B1R antagonist [3]: absence of BdABK labeling; also recorded: B1R labeling was absent; also recorded: elimination of B1R labeling
development of tactile and cold allodynia [4]: blocked

Compound: BK: bradykinin, preferential B2R agonist; used to induce B1R in microglia (RPPGFSPFR; Bradykinin; UniProt P01042 381-389, looked up)
intracellular calcium and NF-κB activation (B2 receptors): induces elevation of intracellular calcium leading to the phosphorylation and activation of NF-κB
B1R expression in cultured rat microglia exposed to BK [5]: B1R can be expressed in cultured rat microglia
induction of B1R in primary microglial cells [6]: B1R was induced
